Reference: the NIST ThermoML archive (doi:10.1021/je700707y)
“And” between values parts separate entries of the source, which are not always exact repeats. Identical values can stand only once. ± gives the expanded uncertainty stated by the source.

Key:
[1] = 101.33 kPa, Liquid, Vibrating tube method
[2] = wn = mass fraction of the nth substance listed; conditions: Liquid, Vibrating tube method, w2 = 0.001

CCCC[N+]1(C)CCCC1.FC(F)(F)C(F)(F)[P-](F)(F)(F)(C(F)(F)C(F)(F)F)C(F)(F)C(F)(F)F
[1]
Conditions	mass density [kg/m3]
293.15 K	1588.1 ± 3
303.15 K	1577.3 ± 2.9
313.15 K	1566.8 ± 2.9
323.15 K	1556.4 ± 2.9
333.15 K	1545.9 ± 2.8
343.15 K	1535.5 ± 2.8
353.15 K	1525.1 ± 2.7
363.15 K	1514.7 ± 2.7

CCCCCCCCCCn1cc[n+](C)c1.O=S(=O)([N-]S(=O)(=O)C(F)(F)F)C(F)(F)F
[1]
Conditions	mass density [kg/m3]
293.15 K	1282.4 ± 4.1
303.15 K	1273.8 ± 4.1
313.15 K	1265.3 ± 4
323.15 K	1256.8 ± 4
333.15 K	1248.3 ± 3.9
343.15 K	1239.9 ± 3.8
353.15 K	1231.4 ± 3.8
363.15 K	1223.1 ± 3.7

C[N+]1(CC#N)CCCC1.O=S(=O)([N-]S(=O)(=O)C(F)(F)F)C(F)(F)F
[1]
Conditions	mass density [kg/m3]
293.15 K	1545.4 ± 6
298.15 K	1537.8 ± 6
303.15 K	1533.1 ± 5.9
313.15 K	1523.8 ± 5.9
323.15 K	1514.5 ± 5.8
333.15 K	1505.5 ± 5.7
343.15 K	1496.7 ± 5.7
353.15 K	1487.8 ± 5.6
363.15 K	1479 ± 5.5

CCCCn1cc[n+](C)c1.F[B-](F)(F)F [1-butyl-3-methylimidazolium tetrafluoroborate]
[1]
Conditions	mass density
293.15 K	1203.8 ± 1.7 kg/m3 and 1204.9 ± 1.7 kg/m3
298.15 K	1200 ± 1.6 kg/m3 and 1201.1 ± 1.6 kg/m3
303.15 K	1196.2 ± 1.6 kg/m3 and 1197.4 ± 1.6 kg/m3
308.15 K	1192.4 ± 1.6 kg/m3 and 1193.8 ± 1.6 kg/m3
313.15 K	1188.9 ± 1.6 kg/m3 and 1190.1 ± 1.6 kg/m3
318.15 K	1185.4 ± 1.6 kg/m3 and 1186.5 ± 1.6 kg/m3
323.15 K	1181.3 ± 1.6 kg/m3 and 1182.7 ± 1.6 kg/m3
328.15 K	1177.9 ± 1.6 kg/m3 and 1179 ± 1.6 kg/m3
333.15 K	1174.1 ± 1.6 kg/m3 and 1175.3 ± 1.6 kg/m3
338.15 K	1170.5 ± 1.6 kg/m3 and 1171.7 ± 1.6 kg/m3
343.15 K	1166.9 ± 1.5 kg/m3 and 1168 ± 1.5 kg/m3

CCCCCC[n+]1ccn(C)c1.O=S(=O)([N-]S(=O)(=O)C(F)(F)F)C(F)(F)F
[1]
Conditions	mass density [kg/m3]
293.15 K	1375.1 ± 4.8
303.15 K	1366 ± 4.7
313.15 K	1356.9 ± 4.6
323.15 K	1347.9 ± 4.6
333.15 K	1338.8 ± 4.5
343.15 K	1329.8 ± 4.4
353.15 K	1320.9 ± 4.4
363.15 K	1311.9 ± 4.3

CCCCCCCCn1cc[n+](C)c1.O=S(=O)([N-]S(=O)(=O)C(F)(F)F)C(F)(F)F
[1]
Conditions	mass density [kg/m3]
293.15 K	1324.5 ± 4.4
303.15 K	1315.8 ± 4.3
313.15 K	1307 ± 4.3
323.15 K	1298.2 ± 4.2
333.15 K	1289.5 ± 4.2
343.15 K	1280.8 ± 4.1
353.15 K	1272.1 ± 4.1
363.15 K	1263.5 ± 4

CCCC[n+]1ccn(C)c1.O=S(=O)([N-]S(=O)(=O)C(F)(F)F)C(F)(F)F + O
[2], 101 kPa
Conditions	mass density [kg/m3]
293.15 K	1439.9 ± 5.2
298.15 K	1435.1 ± 5.2
303.15 K	1430.3 ± 5.1
308.15 K	1425.5 ± 5.1
313.15 K	1420.7 ± 5.1
318.15 K	1416 ± 5
323.15 K	1411.2 ± 5
328.15 K	1406.5 ± 5
333.15 K	1401.7 ± 4.9
338.15 K	1396.9 ± 4.9
343.15 K	1392.2 ± 4.9

CCn1cc[n+](C)c1.O=S(=O)([N-]S(=O)(=O)C(F)(F)F)C(F)(F)F + O
[2], 101 kPa
Conditions	mass density [kg/m3]
293.15 K	1520 ± 5.8
298.15 K	1515 ± 5.8
303.15 K	1510 ± 5.7
308.15 K	1504.9 ± 5.7
313.15 K	1499.8 ± 5.7
318.15 K	1494.8 ± 5.6
323.15 K	1489.8 ± 5.6
328.15 K	1484.8 ± 5.5
333.15 K	1479.7 ± 5.5
338.15 K	1474.7 ± 5.5
343.15 K	1469.7 ± 5.4

CCCCCCCCCCCCCC[P+](CCCCCC)(CCCCCC)CCCCCC.O=S(=O)([N-]S(=O)(=O)C(F)(F)F)C(F)(F)F + O
Conditions	mass density [kg/m3]
[2], 298.15 K, 100 kPa	1060.1 ± 2.8

CCn1cc[n+](C)c1.O=S(=O)([N-]S(=O)(=O)C(F)(F)F)C(F)(F)F
[1]
Conditions	mass density
293.15 K	1522.9 ± 5.9 kg/m3 and 1523.4 ± 5.9 kg/m3
298.15 K	1517.9 ± 5.8 kg/m3
303.15 K	1512.9 ± 5.8 kg/m3 and 1513.4 ± 5.8 kg/m3
308.15 K	1507.9 ± 5.7 kg/m3
313.15 K	1502.9 ± 5.7 kg/m3 and 1503.4 ± 5.7 kg/m3
318.15 K	1497.9 ± 5.7 kg/m3
323.15 K	1492.9 ± 5.6 kg/m3 and 1493.4 ± 5.6 kg/m3
328.15 K	1488 ± 5.6 kg/m3
333.15 K	1483 ± 5.5 kg/m3 and 1483.5 ± 5.6 kg/m3
338.15 K	1478 ± 5.5 kg/m3
343.15 K	1473 ± 5.5 kg/m3 and 1473.7 ± 5.5 kg/m3
353.15 K	1463.8 ± 5.4 kg/m3
363.15 K	1454 ± 5.3 kg/m3

CCCC[n+]1ccn(C)c1.O=S(=O)([N-]S(=O)(=O)C(F)(F)F)C(F)(F)F
[1]
Conditions	mass density
293.15 K	1442.7 ± 5.2 kg/m3 and 1440.2 ± 5.2 kg/m3
298.15 K	1437.9 ± 5.2 kg/m3
303.15 K	1433.1 ± 5.2 kg/m3 and 1430.7 ± 5.2 kg/m3
308.15 K	1428.3 ± 5.1 kg/m3
313.15 K	1423.5 ± 5.1 kg/m3 and 1421.2 ± 5.1 kg/m3
318.15 K	1418.8 ± 5.1 kg/m3
323.15 K	1414 ± 5 kg/m3 and 1411.8 ± 5 kg/m3
328.15 K	1409.3 ± 5 kg/m3
333.15 K	1404.5 ± 5 kg/m3 and 1402.4 ± 5 kg/m3
338.15 K	1399.7 ± 4.9 kg/m3
343.15 K	1395 ± 4.9 kg/m3 and 1393 ± 4.9 kg/m3
353.15 K	1383.6 ± 4.8 kg/m3
363.15 K	1374.3 ± 4.8 kg/m3

CCCCn1cc[n+](C)c1.F[P-](F)(F)(F)(F)F [1-butyl-3-methylimidazolium hexafluorophosphate] + O
[2], 101 kPa
Conditions	mass density [kg/m3]
293.15 K	1367.5 ± 0.2
298.15 K	1363.4 ± 0.2
303.15 K	1359.2 ± 0.2
308.15 K	1355.2 ± 0.2
313.15 K	1351 ± 0.2
318.15 K	1346.8 ± 0.2
323.15 K	1342.4 ± 0.2
328.15 K	1338.5 ± 0.2
333.15 K	1334.4 ± 0.2
338.15 K	1330.3 ± 0.2
343.15 K	1326.2 ± 0.2

Cn1cc[n+](C)c1.N#C[S-] [1,3-dimethylimidazolium thiocyanate]
[1]
Conditions	mass density [kg/m3]
293.15 K	1160.7 ± 0.5
298.15 K	1157.4 ± 0.5
303.15 K	1154.2 ± 0.5
313.15 K	1147.8 ± 0.5
323.15 K	1141.4 ± 0.4
333.15 K	1135.2 ± 0.4
343.15 K	1129.1 ± 0.4
353.15 K	1123.1 ± 0.4
363.15 K	1117.2 ± 0.4

CCCCCC[n+]1ccn(C)c1.FC(F)(F)C(F)(F)[P-](F)(F)(F)(C(F)(F)C(F)(F)F)C(F)(F)C(F)(F)F
[1]
Conditions	mass density [kg/m3]
293.15 K	1557.1 ± 2.9
298.15 K	1551.8 ± 2.8
303.15 K	1546.4 ± 2.8
313.15 K	1535.7 ± 2.8
323.15 K	1525 ± 2.7
333.15 K	1514.3 ± 2.7
343.15 K	1503.6 ± 2.7
353.15 K	1493 ± 2.6
363.15 K	1482.4 ± 2.6

CCCCn1cc[n+](C)c1.F[B-](F)(F)F [1-butyl-3-methylimidazolium tetrafluoroborate] + O
Conditions	mass density [kg/m3]
[2], 298.15 K, 100 kPa	1197.5 ± 1.6

CCOS(=O)(=O)[O-].CCn1cc[n+](C)c1 [1-ethyl-3-methylimidazolium ethyl sulfate]
[1]
Conditions	mass density [kg/m3]
293.15 K	1242.3 ± 3.9
303.15 K	1235.6 ± 3.8
313.15 K	1228.9 ± 3.8
323.15 K	1222.1 ± 3.7
333.15 K	1215.5 ± 3.7
343.15 K	1208.8 ± 3.6
353.15 K	1202.2 ± 3.6
363.15 K	1195.6 ± 3.6

CCCCn1cc[n+](C)c1.F[P-](F)(F)(F)(F)F [1-butyl-3-methylimidazolium hexafluorophosphate]
[1]
Conditions	mass density
293.15 K	1369.8 ± 0.2 kg/m3 and 1368.1 ± 0.2 kg/m3
298.15 K	1365.7 ± 0.2 kg/m3 and 1364.1 ± 0.2 kg/m3
303.15 K	1361.6 ± 0.2 kg/m3 and 1360 ± 0.2 kg/m3
308.15 K	1357.4 ± 0.2 kg/m3 and 1355.7 ± 0.2 kg/m3
313.15 K	1353.3 ± 0.2 kg/m3 and 1351.8 ± 0.2 kg/m3
318.15 K	1349.2 ± 0.2 kg/m3 and 1347.5 ± 0.2 kg/m3
323.15 K	1345.1 ± 0.2 kg/m3 and 1343.5 ± 0.2 kg/m3
328.15 K	1341 ± 0.2 kg/m3 and 1339.4 ± 0.2 kg/m3
333.15 K	1336.9 ± 0.2 kg/m3 and 1335.2 ± 0.2 kg/m3
338.15 K	1332.7 ± 0.2 kg/m3 and 1331.1 ± 0.2 kg/m3
343.15 K	1328.6 ± 0.2 kg/m3 and 1327 ± 0.2 kg/m3

N#CC[n+]1ccccc1.O=S(=O)([N-]S(=O)(=O)C(F)(F)F)C(F)(F)F
[1]
Conditions	mass density [kg/m3]
293.15 K	1636.2 ± 6.8
298.15 K	1631.2 ± 6.7
303.15 K	1626.2 ± 6.7
313.15 K	1616.2 ± 6.6
323.15 K	1606.4 ± 6.5
333.15 K	1596.8 ± 6.4
343.15 K	1587.3 ± 6.4
353.15 K	1577.7 ± 6.3
363.15 K	1568.3 ± 6.2

CCCCCCCCCCn1cc[n+](C)c1.O=S(=O)([N-]S(=O)(=O)C(F)(F)F)C(F)(F)F + O
Conditions	mass density [kg/m3]
[2], 298.15 K, 100 kPa	1275.5 ± 4.1

CCCCn1cc[n+](C)c1.O=S(=O)([O-])C(F)(F)F [1-butyl-3-methylimidazolium trifluoromethanesulfonate]
[1]
Conditions	mass density [kg/m3]
293.15 K	1301.3 ± 4.2
303.15 K	1293.4 ± 4.2
313.15 K	1285.6 ± 4.1
323.15 K	1277.7 ± 4.1
333.15 K	1269.9 ± 4
343.15 K	1262.3 ± 4
353.15 K	1254.5 ± 3.9
363.15 K	1246.9 ± 3.9

CCCCCCCCCCCCCC[P+](CCCCCC)(CCCCCC)CCCCCC.O=S(=O)([N-]S(=O)(=O)C(F)(F)F)C(F)(F)F
[1]
Conditions	mass density [kg/m3]
293.15 K	1067.6 ± 2.8
303.15 K	1060.3 ± 2.8
313.15 K	1052.9 ± 2.7
323.15 K	1045.7 ± 2.7
333.15 K	1038.6 ± 2.6
343.15 K	1031.5 ± 2.6
353.15 K	1024.4 ± 2.6
363.15 K	1017.3 ± 2.5
